{
  "source": "patent US20230257396A1",
  "about": "“MACROCYCLES AND THEIR USE” (BLOSSOMHILL THERAPEUTICS, INC., priority 2020, published 2023)",
  "key": {"kinases [1]": {"molecular_target": "T1, kinases (Homo sapiens, UniProt P00533, T790M)", "T1 construct": "purchased Eurofins/DiscoveRx; host or cells: E. coli BL21-derived host (T7 phage display) for most kinases; HEK-293 for the rest", "assay": "KINOMEscan kinase binding assay (Eurofins/DiscoveRx), % Ctrl", "how_it_was_run": "(§1)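 Read-out is qPCR of kinase eluted from ligand-coated streptavidin beads after 1 h room-temperature competition with test compound. Values are % Ctrl at the tested concentration, lower meaning tighter binding.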"}, "kinases [2]": {"molecular_target": "T2, kinases (Homo sapiens, UniProt P36888, D835V)", "T2 construct": "purchased Eurofins/DiscoveRx; host or cells: E. coli BL21-derived host (T7 phage display) for most kinases; HEK-293 for the rest", "T2 sequence (P36888 27-993 D835V)": "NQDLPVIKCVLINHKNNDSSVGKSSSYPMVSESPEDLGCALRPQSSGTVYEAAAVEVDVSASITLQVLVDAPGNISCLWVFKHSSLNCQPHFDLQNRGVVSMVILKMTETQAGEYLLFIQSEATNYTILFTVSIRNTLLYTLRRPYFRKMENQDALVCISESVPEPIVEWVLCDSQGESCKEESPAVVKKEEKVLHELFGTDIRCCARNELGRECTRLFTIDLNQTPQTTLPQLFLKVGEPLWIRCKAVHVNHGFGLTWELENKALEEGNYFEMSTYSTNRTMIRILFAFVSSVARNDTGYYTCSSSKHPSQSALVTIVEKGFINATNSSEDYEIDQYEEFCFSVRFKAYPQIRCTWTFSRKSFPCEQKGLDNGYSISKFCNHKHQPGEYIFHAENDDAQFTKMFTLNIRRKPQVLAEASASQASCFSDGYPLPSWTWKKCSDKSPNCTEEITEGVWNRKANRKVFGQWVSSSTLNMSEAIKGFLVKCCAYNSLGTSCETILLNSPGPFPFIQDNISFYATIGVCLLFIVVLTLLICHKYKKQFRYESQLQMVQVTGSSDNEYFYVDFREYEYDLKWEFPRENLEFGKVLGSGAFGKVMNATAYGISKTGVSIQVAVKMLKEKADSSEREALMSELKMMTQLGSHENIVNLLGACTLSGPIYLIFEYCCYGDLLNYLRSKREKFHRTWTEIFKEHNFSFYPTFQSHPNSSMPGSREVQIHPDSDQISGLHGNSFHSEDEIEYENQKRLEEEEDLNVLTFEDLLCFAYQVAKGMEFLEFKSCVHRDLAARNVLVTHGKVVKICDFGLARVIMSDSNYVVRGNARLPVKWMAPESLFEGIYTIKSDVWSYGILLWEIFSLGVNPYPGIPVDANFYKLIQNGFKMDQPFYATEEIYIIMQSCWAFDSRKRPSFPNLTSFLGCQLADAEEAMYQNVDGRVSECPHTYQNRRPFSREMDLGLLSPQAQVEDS", "assay": "KINOMEscan kinase binding assay (Eurofins/DiscoveRx), % Ctrl", "how_it_was_run": "as §1"}},
  "data": [
    {"smiles": "CNC(=O)[C@H]1CN(C)C(=O)c2cc(C)[nH]c2/C=C2\\C(=O)Nc3cc(Cl)c(cc32)OCCO1", "note": "[Ex. 135, [7R,16a(17)Z]-19-chloro-N,2,5-trimethyl-4,16-dioxo-4,5,6,7,9,10,15,16-octahydro-1H-12,14-(ethanediylidene)dipyrrolo[3,2-i:3′,4′-l][1,4,7]dioxazacyclopentadecine-7-carboxamide]", "values": [
      {"measurement": "% Ctrl, EGFR(T790M)", "setting": "kinases [1]; 1 μM; EGFR(T790M)", "value": 94, "unit": "% Ctrl"},
      {"measurement": "% Ctrl, FLT3(D835V)", "setting": "kinases [2]; 1 μM; FLT3(D835V)", "value": 6, "unit": "% Ctrl"}
    ]},
    {"smiles": "Cc1cc2c([nH]1)/C=C1\\C(=O)Nc3cc(Cl)c(cc31)OCCO[C@@H](C(=O)N[C@@H]1CCNC1)CN(C)C2=O", "note": "[Ex. 136, [7R,16a(17)Z]-19-chloro-2,5-dimethyl-4,16-dioxo-N-[(3R)-pyrrolidin-3-yl]-4,5,6,7,9,10,15,16-octahydro-1H-12,14-(ethanediylidene)dipyrrolo[3,2-i:3′,4′-l][1,4,7]dioxazacyclopentadecine-7-carboxamide]", "values": [
      {"measurement": "% Ctrl, EGFR(T790M)", "setting": "kinases [1]; 1 μM; EGFR(T790M)", "value": 96, "unit": "% Ctrl"},
      {"measurement": "% Ctrl, FLT3(D835V)", "setting": "kinases [2]; 1 μM; FLT3(D835V)", "value": 2, "unit": "% Ctrl"}
    ]},
    {"smiles": "Cc1cc2c([nH]1)/C=C1\\C(=O)Nc3cc(Cl)c(cc31)OCCO[C@@H](C(=O)N(C)C)CN(C)C2=O", "note": "[Ex. 137, [7R,16a(17)Z]-19-chloro-N,N,2,5-tetramethyl-4,16-dioxo-4,5,6,7,9,10,15,16-octahydro-1H-12,14-(ethanediylidene)dipyrrolo[3,2-i:3′,4′-l][1,4,7]dioxazacyclopentadecine-7-carboxamide]", "values": [
      {"measurement": "% Ctrl, EGFR(T790M)", "setting": "kinases [1]; 1 μM; EGFR(T790M)", "value": 94, "unit": "% Ctrl"},
      {"measurement": "% Ctrl, FLT3(D835V)", "setting": "kinases [2]; 1 μM; FLT3(D835V)", "value": 8.5, "unit": "% Ctrl"}
    ]},
    {"smiles": "Cc1cc2c([nH]1)/C=C1\\C(=O)Nc3cc(Cl)c(cc31)OCCO[C@@H](C(=O)N1CCN(C)CC1)CN(C)C2=O", "note": "[Ex. 138, [7R,16a(17)Z]-19-chloro-2,5-dimethyl-7-(4-methylpipearazine-1-carbonyl)-6,7,9,10-tetrahydro-1H-12,14-(ethanediylidene)dipyrrolo[3,2-i:3′,4′-l][1,4,7]dioxazacyclopentadecine-4,16(5H,15H)-dione]", "values": [
      {"measurement": "% Ctrl, EGFR(T790M)", "setting": "kinases [1]; target EGFR(T790M); 1 μM", "value": 94, "unit": "% Ctrl"},
      {"measurement": "% Ctrl, FLT3(D835V)", "setting": "kinases [2]; target FLT3(D835V); 1 μM", "value": 18, "unit": "% Ctrl"}
    ]},
    {"smiles": "Cc1cc2c([nH]1)/C=C1\\C(=O)Nc3ccc(cc31)-c1c(noc1C)CNCCN(C)C2=O", "note": "[Ex. 139, [3a(4)Z]-6,9,16-trimethyl-10,11,12,13-tetrahydro-2H-1,17-(ethanediylidene)[1,2]oxazolo[4,3-m]dipyrrolo[3,2-f:3′,4′-i][1,4]diazacyclopentadecine-3,8(5H,9H)-dione]", "values": [
      {"measurement": "% Ctrl, EGFR(T790M)", "setting": "kinases [1]; target EGFR(T790M); 1 μM", "value": 36, "unit": "% Ctrl"},
      {"measurement": "% Ctrl, FLT3(D835V)", "setting": "kinases [2]; target FLT3(D835V); 1 μM", "value": 0.9, "unit": "% Ctrl"}
    ]},
    {"smiles": "CN1CCOCCOc2cc3c(cc2Cl)NC(=O)/C3=C\\c2[nH]ccc2C1=O", "note": "[Ex. 143, [16a(17)Z]-19-chloro-2,5-dimethyl-6,7,9,10-tetrahydro-1H-12,14-(ethanediylidene)dipyrrolo[3,2-i:3′,4′-l][1,4,7]oxathiazacyclopentadecine-4,16(5H,15H)-dione]", "values": [
      {"measurement": "% Ctrl, EGFR(T790M)", "setting": "kinases [1]; target EGFR(T790M); 1 μM", "value": 100, "unit": "% Ctrl"},
      {"measurement": "% Ctrl, FLT3(D835V)", "setting": "kinases [2]; target FLT3(D835V); 1 μM", "value": 0.3, "unit": "% Ctrl"}
    ]},
    {"smiles": "Cc1cc2c([nH]1)/C=C1\\C(=O)Nc3ccc(cc31)-c1c(C)nn(C)c1COCCN(C)C2=O", "note": "[Ex. 146, [3a(4)Z]-6,9,14,16-tetramethyl-10,11,13,14-tetrahydro-2H-1,17-(ethanediylidene)pyrazolo[4,3-m]dipyrrolo[3,2-f:3′,4′-i][1,4]oxazacyclopentadecine-3,8(5H,9H)-dione]", "values": [
      {"measurement": "% Ctrl, EGFR(T790M)", "setting": "kinases [1]; target EGFR(T790M); 1 μM", "value": 57, "unit": "% Ctrl"},
      {"measurement": "% Ctrl, FLT3(D835V)", "setting": "kinases [2]; target FLT3(D835V); 1 μM", "value": 0.2, "unit": "% Ctrl"}
    ]},
    {"smiles": "Cc1nn(C)c2c1-c1ccc3c(c1)/C(=C/c1[nH]ccc1C(=O)N(C)CCCO2)C(=O)N3", "note": "[Ex. 150, [3a(4)Z]-9,14,16-trimethyl-10,11,13,14-tetrahydro-2H-1,17-(ethanediylidene)pyrazolo[4,3-m]dipyrrolo[3,2-f:3′,4′-i][1,4]oxazacyclopentadecine-3,8(5H,9H)-dione]", "values": [
      {"measurement": "% Ctrl, EGFR(T790M)", "setting": "kinases [1]; target EGFR(T790M); 1 μM", "value": 86, "unit": "% Ctrl"},
      {"measurement": "% Ctrl, FLT3(D835V)", "setting": "kinases [2]; target FLT3(D835V); 1 μM", "value": 13, "unit": "% Ctrl"}
    ]},
    {"smiles": "CN1CCSCCOc2cc3c(cc2Cl)NC(=O)/C3=C\\c2[nH]ccc2C1=O", "note": "[Ex. 153]", "values": [
      {"measurement": "% Ctrl, EGFR(T790M)", "setting": "kinases [1]; target EGFR(T790M); 1 μM", "value": 83, "unit": "% Ctrl"},
      {"measurement": "% Ctrl, FLT3(D835V)", "setting": "kinases [2]; target FLT3(D835V); 1 μM", "value": 0.3, "unit": "% Ctrl"}
    ]},
    {"smiles": "Cc1cc2c([nH]1)/C=C1\\C(=O)Nc3ccc(cc31)-c1c(noc1C(C)C)COCCN(C)C2=O", "note": "[Ex. 161, [3a(4)Z]-9-methyl-16-(propan-2-yl)-10,11-dihydro-2H,13H-1,17-(ethanediylidene)[1,2]oxazolo[4,3-m]dipyrrolo[3,2-f:3′,4′-i][1,4]oxazacyclopentadecine-3,8(5H,9H)-dione]", "values": [
      {"measurement": "% Ctrl, EGFR(T790M)", "setting": "kinases [1]; 1 μM; target EGFR(T790M)", "value": 100, "unit": "% Ctrl"},
      {"measurement": "% Ctrl, FLT3(D835V)", "setting": "kinases [2]; 1 μM; target FLT3(D835V)", "value": 23, "unit": "% Ctrl"}
    ]},
    {"smiles": "CN1CCOc2cc3c(cc2Cl)NC(=O)/C3=C\\c2[nH]ccc2C(=O)N(C)CC1", "note": "[Ex. 164, [16a(17)Z]-19-chloro-2,5,8-trimethyl-5,6,7,8,9,10-hexahydro-12,14-(ethanediylidene)dipyrrolo[3,2-i:3′,4′-l][1,4,7]oxadiazacyclopentadecine-4,16(1H,15H)-dione]", "values": [
      {"measurement": "% Ctrl, EGFR(T790M)", "setting": "kinases [1]; 1 μM; target EGFR(T790M)", "value": 97, "unit": "% Ctrl"},
      {"measurement": "% Ctrl, FLT3(D835V)", "setting": "kinases [2]; 1 μM; target FLT3(D835V)", "value": 1.1, "unit": "% Ctrl"}
    ]},
    {"smiles": "Cc1cc2c([nH]1)/C=C1\\C(=O)Nc3ccc(cc31)-c1cnn(C)c1OCCCN(C)C2=O", "note": "[Ex. 166, [3a(4)Z]-9,14-dimethyl-9,10,11,12-tetrahydro-14H-1,17-(ethanediylidene)pyrazolo[4,3-n]dipyrrolo[3,2-g:3′,4′-j][1,5]oxazacyclopentadecine-3,8(2H,5H)-dione]", "values": [
      {"measurement": "% Ctrl, EGFR(T790M)", "setting": "kinases [1]; 1 μM; target EGFR(T790M)", "value": 26, "unit": "% Ctrl"},
      {"measurement": "% Ctrl, FLT3(D835V)", "setting": "kinases [2]; 1 μM; target FLT3(D835V)", "value": 1.8, "unit": "% Ctrl"}
    ]},
    {"smiles": "Cc1cc2c([nH]1)/C=C1\\C(=O)Nc3cc(Cl)c(cc31)SCCOCCN(C)C2=O", "note": "[Ex. 169, [16a(17)Z]-19-chloro-5-methyl-6,7,9,10-tetrahydro-1H-12,14-(ethanediylidene)dipyrrolo[3,4-g:2′,3′-j][1,4,13]oxathiazacyclopentadecine-4,16(5H,15H)-dione]", "values": [
      {"measurement": "% Ctrl, EGFR(T790M)", "setting": "kinases [1]; 1 μM; target EGFR(T790M)", "value": 69, "unit": "% Ctrl"},
      {"measurement": "% Ctrl, FLT3(D835V)", "setting": "kinases [2]; 1 μM; target FLT3(D835V)", "value": 0, "unit": "% Ctrl"}
    ]},
    {"smiles": "Cc1cc2c([nH]1)/C=C1\\C(=O)Nc3cnc(cc31)-c1cnn(C)c1CN(C)CCN(C)C2=O", "note": "[Ex. 172, [3a(4)Z]-6,9,12,14-tetramethyl-9,10,11,12,13,14-hexahydro-17,1-(azenometheno)pyrazolo[4,3-m]dipyrrolo[3,2-f:3′,4′-i][1,4]diazacyclopentadecine-3,8(2H,5H)-dione]", "values": [
      {"measurement": "% Ctrl, EGFR(T790M)", "setting": "kinases [1]; 1 μM; target EGFR(T790M)", "value": 22, "unit": "% Ctrl"},
      {"measurement": "% Ctrl, FLT3(D835V)", "setting": "kinases [2]; 1 μM; target FLT3(D835V)", "value": 0.5, "unit": "% Ctrl"}
    ]}
  ]
}
